Source: US8933290B2, “Mesh implant” (Sofradim Production SAS, priority 2007, dated 2015)

System: classical pathway of the complement system
Assay: Anti-complement activity, CH50 hemolytic assay in total human serum
Format: biochemical
Conditions: in solution, sheep erythrocytes
Protocol: The anti-complement activity of fucans was tested via a CH50 test, a standard hemolytic assay in total human serum. Complement activation in human serum was induced by the introduction of sheep erythrocytes coated with rabbit antibodies and then recognized as foreign elements. […] The amount of released hemoglobin was then determined by an optical density (OD) measurement at about 414 nm. The human serum dilution was adjusted for a known amount of erythrocytes, in order to lyse about 50% of the red blood cells (CH50). In order to check the impact of the fucan on the complement activation in solution, the fucan was added with the sheep erythrocytes. […] Heparin (heparin […] 173 UI/mg, Choay-Sanofi) and fucan […] RED synthesized in the Laboratoire de Recherche sur les Macromolecules (LRM, CNRS UMR 7540, France) were also tested instead of fucan.

## heparin [heparin H108]
  IC50 (median inhibition concentration), anti-complement activity: about 30 μg/mL
